Experimental data as given in patent US20120015925A1, “NOVEL BENZOTHIAZEPINE AND BENZOTHIEPINE COMPOUNDS” (ASAHI KASEI PHARMA CORPORATION, priority 2004, published 2012).

Legend:
[1] = biological target: T1, human IBAT (Homo sapiens, UniProt Q12908); test: In vitro assay using Cos 7 cells, transiently expressed human IBAT; format: cell-based; conditions: [3H]-taurocholate 8 μM uptake, 37° C., 60 minutes
T1 sequence (Q12908 1-348): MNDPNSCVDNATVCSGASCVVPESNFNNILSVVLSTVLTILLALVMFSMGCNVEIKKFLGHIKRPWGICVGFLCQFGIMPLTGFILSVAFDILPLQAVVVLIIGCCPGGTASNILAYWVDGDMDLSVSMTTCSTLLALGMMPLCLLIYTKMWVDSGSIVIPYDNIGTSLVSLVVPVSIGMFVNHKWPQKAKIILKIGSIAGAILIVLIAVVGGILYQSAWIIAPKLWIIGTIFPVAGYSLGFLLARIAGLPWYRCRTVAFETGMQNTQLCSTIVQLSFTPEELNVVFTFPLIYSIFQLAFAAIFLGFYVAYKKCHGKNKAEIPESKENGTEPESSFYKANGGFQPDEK
Outline: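 Cos 7 cells transfected with human or rat IBAT cDNA were assayed one day later in Hanks buffer with 25 mM glucose and 10 mM HEPES (pH 7.4) containing compound. [^3H]-taurocholate (8 μM final) uptake ran 60 min at 37° C. Cells were washed with 1 mM taurocholate, lysed in NaOH, and counted by liquid scintillation.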

[2] = test system: KKA^y/Ta Jcl male mice; test: Obesity and fatty liver model: body weight and liver triglyceride; format: in vivo, mouse; conditions: for BODY WEIGHT (g) BEFORE ADMINISTRATION: 1 mg/kg group, baseline; for BODY WEIGHT (g) DIFFERENCE / BODY WEIGHT (g) TWO WEEKS / LIVER TRIGLYCERIDE: 1 mg/kg once a day for 2 weeks
Protocol: In the present Test Example, an obesity and fatty liver model was employed with reference to the method described in WO02/09757.
That is, KKA^y/Ta Jcl male mice at 10 weeks of age were used as obese mice (N=4 to 7). The test compound was dissolved or suspended in the aqueous solution of 1% HCO 60 (supplied from Nippon Chemicals). The aqueous solution of 1% HCO 60 (supplied from Nippon Chemicals) was used as the control. The consecutive administration was performed once a day for 2 weeks, and body weight was measured daily and compared with the body weight on the day before the administration. On the day after the final administration, the liver was removed, and a triglyceride concentration in liver tissue was measured using a measurement kit (Triglyceride Test Wako, supplied from Wako Pure Chemical Industries). The results are shown in the following Table 14 (Tables 14-1 to 14-3).

[3] = test system: Caco-2 cell; test: Gastrointestinal toxicity: cytotoxicity against Caco-2 cell (LDH activity); format: cell-based, human; conditions: 2 hours, LDH activity in medium relative to cell lysis agent = 100%
Protocol: That is, 10,000 cells/well of Caco-2 cells (purchased from ATCC) were seeded in a 96-well plate [MEM-E medium, 10% FBS (Fetal Bovine Serum), 1% NEAA (Non Essential Amino Acid) solution, supplied from Gibco]. After culturing for 48 hours, the test compound diluted with the medium was added to each well. After 2 hours, 50 μL of the medium was collected, and an LDH activity in the medium was measured using an LDH activity measurement kit (CytoTox96 Non-Radioactive Cytotoxicity Assay, supplied from Promega). Defining the LDH activity of the Caco-2 cells treated with a cell lysis agent as being 100%, the relative activity was calculated as a index of the cytotoxicity.

[4] = test system: rats fed cholesterol food; test: Blood cholesterol lowering effect in rats fed cholesterol food; format: in vivo, rat; conditions: oral, twice per day, SD (IGS) male rats, serum 3 hours after final administration
Protocol: In the present Test Example, a blood cholesterol lowering effect on rats fed cholesterol food was evaluated according to the method described in J. Lipid Res., 1995, 36, 1098-1105.
That is, the food containing 0.4% cholesterol and 0.5% bile acid was given to SD (IGS) strain male rats at 7 to 9 weeks of age for 5 days in advance of the test date, to increase blood cholesterol levels. The rats in which the blood cholesterol level had been obviously elevated from the level before loading the cholesterol food were selected as the subjects in the test. Colestimide (brand name: Cholebine 70% granules, supplied from Mitsubishi Tokyo Pharmaceutical Inc.) which is an anion exchange resin drug was suspended in distilled water, and the test compound was dissolved or suspended in distilled water. They were orally administered forcibly twice per day everyday from the starting date (each n=8). The blood was collected from jugular vein 3 hours after the drug administration on the final day of the experiment, and the cholesterol level in serum was measured to examine the effect of the test compound. As a control, another group (n=8) was merely fed cholesterol food, to which distilled water (1 mL/kg) was administered and the same procedure was applied. The total cholesterol value and the HDL cholesterol value were measured using commercially available kits. The value obtained by subtracting the HDL cholesterol value from the total cholesterol value was regarded as an LDL+VLDL cholesterol value.

[5] = test system: rats dosed cholic acid; test: Lowering effect on bile acid concentrations in portal vein blood in rats dosed cholic acid; format: in vivo, rat
Outline: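 Fasted male SD (IGS) rats aged 7–9 weeks received oral cholic acid (200 mg/kg) plus test compound in water with 0.05% or 1% surfactant (n=6). Portal vein serum total bile acid measured 2 h post-dose; reduction rate (%) calculated against cholic acid-only controls set as 100%.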

[6] = Table 14-2, control group 44.1 ± 0.6
[7] = Table 14-2, control group 0.7 ± 0.4
[8] = Table 14-2, control group 44.8 ± 0.9
[9] = Table 14-2, control group 103 ± 19
[10] = 0.1 mg/kg oral with cholic acid 200 mg/kg, portal vein serum total bile acid 2 hours after, control = 100%, surfactant HCO-60 (##)
[11] = Table 14-1, control group 42.8 ± 0.4
[12] = Table 14-1, control group 42.0 ± 0.7
[13] = Table 14-1, control group 94 ± 18
[14] = Table 14-1, control group −0.8 ± 0.5

| Structure (SMILES) | IC50 [1] [nM] | BODY WEIGHT (g) BEFORE ADMINISTRATION [2, 6] [g] | BODY WEIGHT (g) DIFFERENCE [2, 7] [g] | BODY WEIGHT (g) TWO WEEKS [2, 8] [g] | LIVER TRIGLYCERIDE [2, 9] [mg/g] | CELL TOXICITY AGAINST Caco2 3 μM [3] [%] | CELL TOXICITY AGAINST Caco2 10 μM [3] [%] | CELL TOXICITY AGAINST Caco2 30 μM [3] [%] | LDL + VLDL REDUCTION RATE (%) IN CHOLESTEROL FED RAT MODEL (THERAPEUTIC MODEL) ([4]; 0.3 mg/kg per administration) [%] | BILE ACID REDUCTION RATE (%) IN RAT MODEL WITH CHOLIC ACID LOADING [5, 10] [%] | BODY WEIGHT (g) BEFORE ADMINISTRATION [2, 11] [g] | BODY WEIGHT (g) TWO WEEKS [2, 12] [g] | LIVER TRIGLYCERIDE [2, 13] [mg/g] | BODY WEIGHT (g) DIFFERENCE [2, 14] [g] | LDL + VLDL REDUCTION RATE (%) IN CHOLESTEROL FED RAT MODEL (THERAPEUTIC MODEL) ([4]; 1 mg/kg per administration) [%] | BILE ACID REDUCTION RATE (%) IN RAT MODEL WITH CHOLIC ACID LOADING ([5]; 0.1 mg/kg oral, surfactant Tween 20 0.05%, cholic acid 200 mg/kg, portal vein blood 2 hours after administration) [%] | BILE ACID REDUCTION RATE (%) IN RAT MODEL WITH CHOLIC ACID LOADING ([5]; 0.1 mg/kg oral, surfactant HCO-60 0.1%, cholic acid 200 mg/kg, portal vein blood 2 hours after administration) [%] |
| --- | --- | --- | --- | --- | --- | --- | --- | --- | --- | --- | --- | --- | --- | --- | --- | --- | --- |
| C#CC[N+](C)(Cc1ccccc1)Cc1ccc(NC(=S)Nc2cccc(C3NC(CCCC)(CCCC)CS(=O)(=O)c4ccc(N(C)C)cc43)c2)cc1.[Br-] (racemic) [EXAMPLE 3448] | 37 | 44.1 ± 0.7 | -2.0 ± 0.7 | 42.1 ± 3.2 | 74 ± 8 | <1 | <1 | <1 | 20 | 25 | – | – | – | – | – | – | – |
| CCCCC1(CCCC)CS(=O)(=O)c2ccc(N(C)C)cc2C(c2cccc(NC(=S)Nc3ccc(C[N+]45CCC(c6ccccc6)(CC4)CC5)cc3)c2)N1.[Br-] (racemic) [EXAMPLE 3696] | 39 | 43.5 ± 1.3 | -1.3 ± 0.3 | 42.2 ± 2.2 | 76 ± 12 | <1 | <1 | <1 | 25 | 13 | – | – | – | – | – | – | – |
| CCCCC1(CCCC)CS(=O)(=O)c2ccc(N(C)C)cc2C(c2cccc(NC(=S)CCCCC[N+]34CCC(CC3)CC4)c2)N1.[Br-] (stereo not drawn) [EXAMPLE 1, 1-{5-[3-(3,3-dibutyl-7-dimethylamino-1,1-dioxo-2,3,4,5-tetrahydro-1,4-benzothiazepine-5-yl)phenylthiocarbamoyl]pentyl}-1-azoniabicyclo[2.2.2]octane bromide] | – | – | – | – | – | – | – | – | 49 | – | 43.0 ± 0.5 | 41.0 ± 0.6 | 71 ± 13 | -1.9 ± 0.3 | 68.4 | 51 | – |
| CCCCC1(CCCC)CS(=O)(=O)c2ccc(N(C)C)cc2C(c2cccc(NC(=S)Nc3ccc(C[N+](C)(C)Cc4ccccc4)cc3)c2)N1.[Br-] (stereo not drawn) [EXAMPLE 3440] | 37 | 44.6 ± 0.8 | -0.7 ± 1.0 | 43.9 ± 1.8 | 88 ± 6 | <1 | <1 | <1 | 36 | – | – | – | – | – | – | – | 26 |
| CCCCC1(CCCC)CS(=O)(=O)c2ccc(N(C)C)cc2C(c2cccc(NC(=S)Nc3ccc(C[N+]4(Cc5ccccc5)CCC(O)CC4)cc3)c2)N1.[Br-] (stereo not drawn) [EXAMPLE 3605] | 39 | – | – | – | – | <1 | <1 | <1 | 28 | 24 | 42.9 ± 1.1 | 41.4 ± 1.0 | 65 ± 7 | -1.5 ± 0.4 | – | – | – |
| CCCCC1(CCCC)CS(=O)(=O)c2ccc(N(C)C)cc2C(c2cccc(NC(=S)Nc3ccc(C[n+]4ccc(C(C)(C)C)cc4)cc3)c2)N1.[Br-] (stereo not drawn) [EXAMPLE 3713] | 37 | 44.0 ± 1.1 | -2.5 ± 0.6 | 41.5 ± 2.4 | 59 ± 33 | <1 | <1 | <1 | 41 | 32 | – | – | – | – | – | – | – |
| CCCCC1(CCCC)CS(=O)(=O)c2ccc(N(C)C)cc2C(c2cccc(NC(=S)Nc3ccc(C[n+]4cccc(CCCO)c4)cc3)c2)N1.[Br-] (stereo not drawn) [EXAMPLE 3747] | 45 | 44.3 ± 0.8 | -2.1 ± 1.0 | 42.2 ± 1.8 | 47 ± 23 | <1 | <1 | <1 | 48 | 40 | – | – | – | – | – | – | – |
| CCCCC1(CCCC)CS(=O)(=O)c2ccc(N(C)C)cc2C(c2cccc(NC(=S)Nc3ccc(C[n+]4cccc(CCC(=O)OC)c4)cc3)c2)N1.[Br-] (stereo not drawn) [EXAMPLE 3752] | 41 | 43.8 ± 1.2 | -2.3 ± 0.9 | 41.5 ± 1.0 | 56 ± 23 | <1 | <1 | <1 | 50 | 42 | – | – | – | – | – | – | – |
| CCCCC1(CCCC)CS(=O)(=O)c2ccc(N(C)C)cc2C(c2cccc(NC(=S)Nc3ccc(C[n+]4ccccc4CCC)cc3)c2)N1.[Br-] (stereo not drawn) [EXAMPLE 5408] | 32 | 44.0 ± 0.9 | -1.8 ± 0.5 | 42.2 ± 1.6 | 70 ± 11 | <1 | <1 | <1 | 43 | 35 | – | – | – | – | – | – | – |
